According to ChEMBL document CHEMBL2321655, “Insulin-like growth factor-1 receptor inhibitors: a potential cancer treatment: patent highlight” (ACS Med Chem Lett, 2013):
pIC50: −log10 of the molar value.

Experiments:
HT-29 = assay: Antiproliferative activity against human HT-29 cells; format: functional, cell-based
MCF7 = assay: Antiproliferative activity against human MCF7 cells; format: functional, cell-based

Structure (SMILES) | pIC50 (HT-29) | pIC50 (MCF7)
NC(=O)c1[nH]c2c(N)cc(Cl)cc2c1S(=O)(=O)N1CCOC(COc2ccccc2)C1 (stereo not drawn) | < 5.00 | 5.66
CCOC(=O)N1CCC(Nc2cc(Cl)cc3c(S(=O)(=O)N4CCOC(COc5ccccc5)C4)c(C(N)=O)[nH]c23)CC1 (stereo not drawn) | 5.77 | 6.05
NC(=O)c1[nH]c2c(NC3CCOCC3)cc(Cl)cc2c1S(=O)(=O)N1CCOC(COc2ccccc2)C1 (stereo not drawn) | 5.55 | 6.10
N#CCCNc1cc(Cl)cc2c(S(=O)(=O)N3CCOC(COc4ccccc4)C3)c(C(N)=O)[nH]c12 (stereo not drawn) | 5.28 | > 6.00
